Reference: ChEMBL document CHEMBL1955805, “New aromatase inhibitors from the 3-pyridyl arylether and 1-aryl pyrrolo[2,3-c]pyridine series” (Bioorg Med Chem Lett, 2012)

Legend:
aromatase (CYP19) = molecular target: T1, aromatase (CYP19) (Homo sapiens, UniProt P11511); experiment: Inhibition of human aromatase coexpressed with P450 reductase at 1 uM by fluorimetry; settings: recombinant human aromatase coexpressed with P450 reductase
T1 sequence (P11511 whole entry): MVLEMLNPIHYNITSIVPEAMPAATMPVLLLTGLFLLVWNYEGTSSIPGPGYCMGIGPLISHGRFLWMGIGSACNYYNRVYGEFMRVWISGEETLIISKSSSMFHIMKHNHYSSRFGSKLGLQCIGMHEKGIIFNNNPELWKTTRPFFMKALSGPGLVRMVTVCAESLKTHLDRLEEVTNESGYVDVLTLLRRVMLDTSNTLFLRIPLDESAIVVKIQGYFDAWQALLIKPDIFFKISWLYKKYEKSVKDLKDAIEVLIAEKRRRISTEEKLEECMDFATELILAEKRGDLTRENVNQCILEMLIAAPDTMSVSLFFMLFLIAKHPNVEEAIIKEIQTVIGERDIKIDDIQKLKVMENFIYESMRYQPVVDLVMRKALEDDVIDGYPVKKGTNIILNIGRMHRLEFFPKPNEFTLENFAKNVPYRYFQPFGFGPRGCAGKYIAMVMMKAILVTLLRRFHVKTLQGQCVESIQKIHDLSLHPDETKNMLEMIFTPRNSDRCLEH

Aromatase = molecular target: T2, Aromatase (Homo sapiens, UniProt P11511); experiment: Inhibition of human aromatase coexpressed with P450 reductase by fluorimetry
T2 sequence (P11511 whole entry): T1 sequence (P11511 whole entry)

Homo sapiens [1] = species on record: Homo sapiens; experiment: Selectivity ratio of IC50 for CYP2C9 to IC50 for human aromatase
Homo sapiens [2] = species on record: Homo sapiens; experiment: Selectivity ratio of IC50 for CYP2D6 to IC50 for human aromatase
Homo sapiens [3] = species on record: Homo sapiens; experiment: Selectivity ratio of IC50 for CYP3A4 to IC50 for human aromatase

N#Cc1ccc(Cn2cncn2)cc1
inhibition at 1 µM (aromatase (CYP19)): 88%

CN1CCN(c2cc(Oc3cccnc3)ccc2C#N)CC1
inhibition at 1 µM (aromatase (CYP19)): 8%

N#Cc1ccc(Oc2cccnc2)cc1Oc1cccc(Cl)c1
inhibition at 1 µM (aromatase (CYP19)): 25%

N#Cc1ccc(Oc2cccnc2)cc1Oc1cccnc1
IC50 (Aromatase): 304 nM | inhibition at 1 µM (aromatase (CYP19)): 81%

N#Cc1ccc(Oc2ccncc2)cc1
inhibition at 1 µM (aromatase (CYP19)): 53%

N#Cc1ccc(-n2ccc3ccncc32)cc1
Ratio IC50 (Homo sapiens [1]): > 200 | IC50 (Aromatase): 93 nM | Ratio IC50 (Homo sapiens [2]): > 200 | Ratio IC50 (Homo sapiens [3]): > 200 | inhibition at 1 µM (aromatase (CYP19)): 94%

Cc1cc(-n2ccc3ccncc32)ccc1C#N
inhibition at 1 µM (aromatase (CYP19)): > 99%

Clc1ccc(-n2ccc3ccncc32)cc1
IC50 (Aromatase): 523 nM | inhibition at 1 µM (aromatase (CYP19)): 85%

COc1ccc(Oc2cc(Oc3cccnc3)ccc2C#N)cc1
inhibition at 1 µM (aromatase (CYP19)): 84%

N#Cc1ccc(-n2ccc3ccncc32)cc1Oc1ccccc1
IC50 (Aromatase): 114 nM | inhibition at 1 µM (aromatase (CYP19)): 97%

N#Cc1ccc(Oc2cccnc2)cc1NC1CCCCC1
inhibition at 1 µM (aromatase (CYP19)): 33%

N#Cc1ccc(Oc2cccnc2)cc1NCc1ccccc1
IC50 (Aromatase): 986 nM | inhibition at 1 µM (aromatase (CYP19)): 58%

N#Cc1ccc(Oc2cccnc2)c(Oc2cccc(Cl)c2)c1
IC50 (Aromatase): 229 nM | inhibition at 1 µM (aromatase (CYP19)): 89%

N#Cc1ccc(Oc2cccnc2)cc1
IC50 (Aromatase): 289 nM | inhibition at 1 µM (aromatase (CYP19)): 70%

N#Cc1ccc(Oc2cccnc2)cc1Oc1ccccc1
inhibition at 1 µM (aromatase (CYP19)): 78%

N#Cc1ccc(Oc2cccnc2)c(F)c1
inhibition at 1 µM (aromatase (CYP19)): 52%

N#Cc1ccc(Oc2cccnn2)cc1
inhibition at 1 µM (aromatase (CYP19)): 1%

N#Cc1ccc(Oc2cccnc2)cc1C#N
IC50 (Aromatase): 5030 nM | inhibition at 1 µM (aromatase (CYP19)): 27%

Ic1ccc(-n2ccc3ccncc32)cc1
inhibition at 1 µM (aromatase (CYP19)): 26%

N#Cc1ccc(Oc2cccnc2)cc1F
inhibition at 1 µM (aromatase (CYP19)): 15%

NC(=O)c1ccc(-n2ccc3ccncc32)cc1
inhibition at 1 µM (aromatase (CYP19)): 60%

Brc1ccc(-n2ccc3ccncc32)cc1
inhibition at 1 µM (aromatase (CYP19)): 56%

Cc1cc(-n2ccc3ccncc32)ccc1Cl
IC50 (Aromatase): 59 nM | inhibition at 1 µM (aromatase (CYP19)): 96%

N#Cc1ccc(Oc2cccnc2)c(Oc2cccnc2)c1
inhibition at 1 µM (aromatase (CYP19)): 82%
